Assay results as given in US10723741B1, “DNA polymerase IIIC inhibitors and use thereof” (Acurx Pharmaceuticals, LLC, priority 2018, dated 2020).
≈ marks a conversion by molar mass, not a printed value.

Assays:
Assay type in all cases: cell-based
[1] = test system: Staphylococcus aureus NRS384 (MRSA); test: Broth microdilution MIC, S. aureus NRS384 (MRSA); conditions: Staphylococcus aureus; broth microdilution, 37° C., 20 hours; read-out: MIC NRS 384 (MRSA)
Excerpt: (§1) Bacteria tested are Staphylococcus aureus NRS384 (a methicillin-resistant Staphylococcus aureus, MRSA), Staphylococcus aureus ATCC 29213 (a methicillin-sensitive Staphylococcus aureus, MSSA), Streptococcus pneumoniae ATCC 49619, Enterococcus faecalis ATCC 29212, Enterococcus faecium ATCC 700221 (a vancomycin-resistant enterococcus, VRE), Bacillus subtilis ATCC 6633, and Escherichia coli ATCC 25922.
(§2) Staphylococcus aureus NRS384 was obtained from NARSA (Network on Antimicrobial Resistance in Staphylococcus aureus, now the strain collection is in BEI resources). Other bacterial isolates were from ATCC (The American Type Culture Collection). Upon receiving the bacteria samples from aforementioned institutes, the bacteria were cultured according to the manuals provided by the suppliers. The bacteria were stored in 25% glycerol (final concentration) at −80° C.
(§3) On the day of testing, the compounds were dissolved in pure DMSO (Sigma 276855-1L) to […] as stock. In a v-bottom 96-well plate (Axygen-wipp02280), 20 μl DMSO was added into well 2 to well 12 by manual pipetting. Into well 1, 12.8 μL of compound DMSO stock (20 mg/ml) was added and mixed with 27.2 μl DMSO by pipetting. Two fold serial dilutions were performed by transferring and mixing 20 μl of solution from well 1 to well 2, then well 2 to well 3 and so forth until well 11. The well 12 was loaded with 20 μl DMSO without compounds. This was drug ‘mother plate’. From well 1 to well 12, the drug concentrations in the mother plate were […] in DMSO. A multi-pipette was used to perform the serial dilutions. The concentration may be adjusted according to the potency of the compounds. An Echo® Acoustic liquid handling system may be used to replace manual pipetting to make the daughter plates.
(§4) One day prior to the day of MIC testing, bacterial strains were streaked out from −80° C. glycerol stocks onto MHA plates and incubated at 37° C. for 20 hours. Streptococcus pneumoniae was streaked on blood agar and incubated at 37° C. in 5% CO2. The single colonies were picked by using an inoculation loop (Greiner-731175) and suspended into 5 ml sterile saline. The turbidity of the suspension was adjusted to 0.10 (Siemens MicroScan turbidity meter), equal to ˜1.0×10^8 cfu/ml. The bacterial suspension was diluted 200× in corresponding test medium (Table 1). This was used to inoculate daughter plates.
(§5) For preparing u-bottom 96-well ‘daughter plates’ (Costar 3788), an aliquot of 1 μl solution from mother plate was then replicating transferred into the daughter plate using a multi-pipette.
(§6) An aliquot of 99 μl of the bacterial suspension was inoculated into each well of the daughter plates using a multi-pipette. Each well contained ˜5.0×10^5 cfu/ml bacteria, 1% DMSO and serially diluted compounds at 64, 32, 16, 8, 4, 2, 1, 0.5, 0.25, 0.125, 0.0625 and 0 μg/ml from well 1 to well 12 respectively, in 100 μl corresponding test medium.
(§7) The plates were incubated in ambient atmosphere and in a 37° C. incubator for 20 hours.
(§8) Compounds of the present invention were tested for antibacterial activity against a variety of bacterial organism including Bacillus subtilis, Staphylococcus aureus, Enterococcus faecalis, Enterococcus faecium, Streptococcus pneumoniae and Escherichia coli. […] Compounds described in Examples 2, 44, 53, 56, 90, 134, 212, 213, 214, 218, 222, 304, 305, and 307 had MIC of ≤1 μg/ml against S. aureus NRS 384 (MRSA) (μg/ml) and E. faecium ATCC 700221 (VRE) (μg/ml).

[2] = test system: Streptococcus pneumoniae ATCC 49619; test: Broth microdilution MIC, S. pneumoniae ATCC 49619; conditions: ATCC49619, broth microdilution, 37° C., 20 hours, read-out: MIC S. pneumoniae ATCC 49619
Excerpt: as §1, §2, §3, §4, §5, §6, §7, §8

[3] = test system: Enterococcus faecium ATCC 700221 (VRE); test: Broth microdilution MIC, E. faecium ATCC 700221 (VRE); conditions: Enterococcus faecium; broth microdilution, 37° C., 20 hours; read-out: MIC E. faecium ATCC 700221 (VRE)
Excerpt: as §1, §2, §3, §4, §5, §6, §7, §8

[4] = test system: Enterococcus faecalis ATCC 29212; test: Broth microdilution MIC, E. faecalis ATCC 29212; conditions: ATCC29212, broth microdilution, 37° C., 20 hours, read-out: MIC E. faecalis ATCC 29212
Excerpt: as §1, §2, §3, §4, §5, §6, §7, §8

[5] = test system: Escherichia coli ATCC 25922; test: Broth microdilution MIC, E. coli ATCC 25922 (MHIIB w & w/o 4 mM EDTA); conditions: broth microdilution, 37° C., 20 hours; for MIC: Escherichia coli, ATCC25922, without EDTA, read-out: MIC E. coli ATCC 25922; for MIC E. coli ATCC 25922 + 4 mM EDTA: with 4 mM EDTA
Excerpt: as §1, §2, §3, §4, §5, §6, §7, §8

[6] = test system: Staphylococcus aureus ATCC 29213 (MSSA); test: Broth microdilution MIC, S. aureus ATCC 29213 (MSSA); conditions: broth microdilution, 37° C., 20 hours, read-out: MIC S. aureus ATCC 29213 (MSSA)
Excerpt: as §1, §2, §3, §4, §5, §6, §7, §8

[7] = test system: Bacillus subtilis ATCC 6633; test: Broth microdilution MIC, B. subtilis ATCC 6633; conditions: ATCC6633, broth microdilution, 37° C., 20 hours, read-out: MIC B. subtilis ATCC 6633
Excerpt: as §1, §2, §3, §4, §5, §6, §7, §8

Row | MIC [1] | MIC [2] | MIC [3] | MIC [4] | MIC [5] | MIC E. coli ATCC 25922 + 4 mM EDTA [5] | MIC [6] | MIC [7] | SMILES
1 | > 64 µg/mL | > 64 µg/mL | > 64 µg/mL | > 64 µg/mL | > 64 µg/mL | >64 µg/mL | > 64 µg/mL | > 64 µg/mL | Cn1ncc2nc(NCc3nc4ccccc4s3)[nH]c(=O)c21 [Compound 18, 5-((Benzo[d]thiazol-2-ylmethyl)amino)-1-methyl-1H-pyrazolo[4,3-d]pyrimidin-7(6H)-one]
2 | > 64 µg/mL | > 64 µg/mL | > 64 µg/mL | > 64 µg/mL | > 64 µg/mL | >64 µg/mL | > 64 µg/mL | > 64 µg/mL | Cn1ncc2nc(NCc3ccc4[nH]cnc4c3)[nH]c(=O)c21 [Compound 19, 5-(((1H-benzo[d]imidazol-5-yl)methyl)amino)-1-methyl-1H-pyrazolo[4,3-d]pyrimidin-7(6H)-one]
3 | > 64 µg/mL | > 64 µg/mL | > 64 µg/mL | > 64 µg/mL | > 64 µg/mL | >64 µg/mL | > 64 µg/mL | > 64 µg/mL | Cn1ncc2nc(NCc3cncs3)[nH]c(=O)c21 [Compound 20, 1-Methyl-5-((thiazol-5-ylmethyl)amino)-1H-pyrazolo[4,3-d]pyrimidin-7(6H)-one]
4 | > 64 µg/mL | > 64 µg/mL | > 64 µg/mL | > 64 µg/mL | > 64 µg/mL | >64 µg/mL | > 64 µg/mL | > 64 µg/mL | Cn1ncc2nc(NCc3cnco3)[nH]c(=O)c21 [Compound 21, 1-Methyl-5-((oxazol-5-ylmethyl)amino)-1H-pyrazolo[4,3-d]pyrimidin-7(6H)-one]
5 | > 64 µg/mL | > 64 µg/mL | > 64 µg/mL | > 64 µg/mL | > 64 µg/mL | >64 µg/mL | > 64 µg/mL | > 64 µg/mL | Cn1ncc2nc(NCc3ncc[nH]3)[nH]c(=O)c21 [Compound 22, 5-(((1H-imidazol-2-yl)methyl)amino)-1-methyl-1H-pyrazolo[4,3-d]pyrimidin-7(6H)-one]
6 | > 64 µg/mL | > 64 µg/mL | > 64 µg/mL | > 64 µg/mL | > 64 µg/mL | >64 µg/mL | > 64 µg/mL | > 64 µg/mL | Cn1ncc2nc(NCc3cccnn3)[nH]c(=O)c21 [Compound 23, 1-Methyl-5-((pyridazin-3-ylmethyl)amino)-1H-pyrazolo[4,3-d]pyrimidin-7(6H)-one]
7 | 8 µg/mL (≈ 26 µM) | 4 µg/mL (≈ 13 µM) | 8 µg/mL (≈ 26 µM) | > 64 µg/mL | > 64 µg/mL | >64 µg/mL | 8 µg/mL (≈ 26 µM) | 8 µg/mL (≈ 26 µM) | Cn1ncc2nc(NCc3ccc(F)c(Cl)c3)[nH]c(=O)c21 [Compound 24, 5-((3-Chloro-4-fluorobenzyl)amino)-1-methyl-1H-pyrazolo[4,3-d]pyrimidin-7(6H)-one]
8 | 8 µg/mL (≈ 27.6 µM) | 4 µg/mL (≈ 13.8 µM) | 16 µg/mL (≈ 55.2 µM) | 16 µg/mL (≈ 55.2 µM) | > 64 µg/mL | 64 µg/mL | 8 µg/mL (≈ 27.6 µM) | 8 µg/mL (≈ 27.6 µM) | Cn1ncc2nc(NCc3ccc(Cl)cc3)[nH]c(=O)c21 [Compound 25, 5-((4-chlorobenzyl)amino)-1-methyl-1H-pyrazolo[4,3-d]pyrimidin-7(6H)-one]
9 | 32 µg/mL (≈ 110 µM) | 16 µg/mL (≈ 55.2 µM) | 32 µg/mL (≈ 110 µM) | 64 µg/mL (≈ 221 µM) | > 64 µg/mL | 64 µg/mL | 32 µg/mL (≈ 110 µM) | 16 µg/mL (≈ 55.2 µM) | Cn1ncc2nc(NCc3cccc(Cl)c3)[nH]c(=O)c21 [Compound 26, 5-((3-Chlorobenzyl)amino)-1-methyl-1H-pyrazolo[4,3-d]pyrimidin-7(6H)-one]
10 | > 64 µg/mL | > 64 µg/mL | > 64 µg/mL | > 64 µg/mL | > 64 µg/mL | 64 µg/mL | > 64 µg/mL | > 64 µg/mL | Cn1ncc2nc(NCc3ccccc3Cl)[nH]c(=O)c21 [Compound 27, 5-((2-Chlorobenzyl)amino)-1-methyl-1H-pyrazolo[4,3-d]pyrimidin-7(6H)-one]
11 | > 64 µg/mL | 64 µg/mL (≈ 197 µM) | 16 µg/mL (≈ 49.4 µM) | > 64 µg/mL | > 64 µg/mL | 64 µg/mL | > 64 µg/mL | 64 µg/mL (≈ 197 µM) | Cn1ncc2nc(NCc3ccc(Cl)cc3Cl)[nH]c(=O)c21 [Compound 28, 5-((2,4-Dichlorobenzyl)amino)-1-methyl-1H-pyrazolo[4,3-d]pyrimidin-7(6H)-one]
12 | > 64 µg/mL | > 64 µg/mL | > 64 µg/mL | > 64 µg/mL | > 64 µg/mL | >64 µg/mL | > 64 µg/mL | > 64 µg/mL | Cn1ncc2nc(NCc3cccc(Cl)c3Cl)[nH]c(=O)c21 [Compound 29, 5-((2,3-Dichlorobenzyl)amino)-1-methyl-1H-pyrazolo[4,3-d]pyrimidin-7(6H)-one]
13 | > 64 µg/mL | > 64 µg/mL | > 64 µg/mL | > 64 µg/mL | > 64 µg/mL | >64 µg/mL | > 64 µg/mL | > 64 µg/mL | Cn1ncc2nc(NCc3c(Cl)cccc3Cl)[nH]c(=O)c21 [Compound 30, 5-((2,6-Dichlorobenzyl)amino)-1-methyl-1H-pyrazolo[4,3-d]pyrimidin-7(6H)-one]
14 | 4 µg/mL (≈ 13.2 µM) | 8 µg/mL (≈ 26.3 µM) | 4 µg/mL (≈ 13.2 µM) | 8 µg/mL (≈ 26.3 µM) | > 64 µg/mL | 16 µg/mL | 4 µg/mL (≈ 13.2 µM) | 2 µg/mL (≈ 6.58 µM) | Cc1ccc(CNc2nc3cnn(C)c3c(=O)[nH]2)cc1Cl [Compound 31, 5-((3-Chloro-4-methylbenzyl)amino)-1-methyl-1H-pyrazolo[4,3-d]pyrimidin-7(6H)-one]
15 | > 64 µg/mL | > 64 µg/mL | > 64 µg/mL | > 64 µg/mL | > 64 µg/mL | >64 µg/mL | > 64 µg/mL | > 64 µg/mL | COc1ccc(CNc2nc3cnn(C)c3c(=O)[nH]2)cc1OC [Compound 32, 5-((3,4-Dimethoxybenzyl)amino)-1-methyl-1H-pyrazolo[4,3-d]pyrimidin-7(6H)-one]
16 | 16 µg/mL (≈ 56.5 µM) | 16 µg/mL (≈ 56.5 µM) | 16 µg/mL (≈ 56.5 µM) | 32 µg/mL (≈ 113 µM) | > 64 µg/mL | >64 µg/mL | 16 µg/mL (≈ 56.5 µM) | 8 µg/mL (≈ 28.2 µM) | Cc1ccc(CNc2nc3cnn(C)c3c(=O)[nH]2)cc1C [Compound 33, 5-((3,4-Dimethylbenzyl)amino)-1-methyl-1H-pyrazolo[4,3-d]pyrimidin-7(6H)-one]
